# Entries after “also recorded” stand apart in the source; their conditions may differ.
# System: CD8bm12-1 T cell clone
# Assay: Proliferation assay (3H-thymidine) of CsA/RAPA-resistant CD8 T cell clone CD8bm12-1 activated by immobilized anti-CD3 without or with anti-CD28
# Assay type: cell-based, mouse (C57BL/6)
# Description: Proliferation assays were done with anti-CD3 (145-2Cl 1) without or with anti-CD28 (37.51). Antibodies in 50 μl of PBS/well were used to coat 96-well tissue culture plates (Costar) overnight at 4° C. Antibodies were shaken off and wells washed 1× with 150 μl of RPMI complete media prior to their use in proliferation assays. Experimental wells were pulsed with 0.5 μCi/well ^3H-thymidine (ICN, Costa Mesa, Calif.) for 10-12 hours at 24-36 or 36-48 hours of the culture cycle. Cyclosporine A (Sigma Chemical Co.; St. Louis, Mo.) dissolved in 200 proof ethanol and CH-223191 (Calbiochem; San Diego, Calif.) dissolved in dimethylsulfoxide were used at indicated concentrations. The no treatment controls in each experiment included vehicle controls for both ethanol and dimethylsulfoxide.
# FIGS. 6A and 6B show proliferation plots of CD8bm1 (▪) and CD8bm12-1 (●), both activated by immobilized anti-CD3 and exposed to a full range of cyclosporine A (the results shown in FIGS. 6A and 6B result from two separate experiments conducted).
compound,measurement,setting,value
Cc1ccccc1N=Nc1ccc(NC(=O)c2ccnn2C)c(C)c1 [CH-223191],effect on proliferation of CD8bm12-1,"media with 1 ug/ml CsA, anti-CD3, CH-223191 3 uM",no effect
same,effect on proliferation of CD8bm12-1,"media with 1 ug/ml CsA, anti-CD3, CH-223191 10 uM",moderate inhibitory effect
same,effect on proliferation of CD8bm12-1,"media with 1 ug/ml CsA, anti-CD3, CH-223191 30 uM",dramatic inhibitory effect; also recorded: completely blocked
same,effect on proliferation of CD8bm12-1,"media with 1 ug/ml CsA, anti-CD3 and anti-CD28, CH-223191 30 uM",completely blocked proliferation
same,effect on proliferation of CD8bm12-1,"media without CsA, anti-CD3, CH-223191 at 30 uM, 10 uM or 3 uM",no discernable negative effect
same,effect on proliferation of CD8bm12-1,"media without CsA, anti-CD3 and anti-CD28, CH-223191",little discernable effect
